Positions of bridges follow the written chain, without caps; N, C: chain ends. Non-standard residues stand in square brackets, D forms with d. Residues, ends and D or L forms follow the SMILES beside them. ξ: configuration not given here. NMeY = CN[C@@H](Cc1ccc(O)cc1)C(=O)O; NMeF = CN[C@@H](Cc1ccccc1)C(=O)O; NMeA = CN[C@@H](C)C(=O)O; ξD = NC(CC(=O)O)C(=O)O; AEEA = NCCOCCOCC(=O)O
Biological target: T1, human ROR1 (Homo sapiens, UniProt Q01973)
T1 construct: host or cells: HEK 293T cells, Tet-on system induced with doxycycline
T1 sequence (Q01973 30-937): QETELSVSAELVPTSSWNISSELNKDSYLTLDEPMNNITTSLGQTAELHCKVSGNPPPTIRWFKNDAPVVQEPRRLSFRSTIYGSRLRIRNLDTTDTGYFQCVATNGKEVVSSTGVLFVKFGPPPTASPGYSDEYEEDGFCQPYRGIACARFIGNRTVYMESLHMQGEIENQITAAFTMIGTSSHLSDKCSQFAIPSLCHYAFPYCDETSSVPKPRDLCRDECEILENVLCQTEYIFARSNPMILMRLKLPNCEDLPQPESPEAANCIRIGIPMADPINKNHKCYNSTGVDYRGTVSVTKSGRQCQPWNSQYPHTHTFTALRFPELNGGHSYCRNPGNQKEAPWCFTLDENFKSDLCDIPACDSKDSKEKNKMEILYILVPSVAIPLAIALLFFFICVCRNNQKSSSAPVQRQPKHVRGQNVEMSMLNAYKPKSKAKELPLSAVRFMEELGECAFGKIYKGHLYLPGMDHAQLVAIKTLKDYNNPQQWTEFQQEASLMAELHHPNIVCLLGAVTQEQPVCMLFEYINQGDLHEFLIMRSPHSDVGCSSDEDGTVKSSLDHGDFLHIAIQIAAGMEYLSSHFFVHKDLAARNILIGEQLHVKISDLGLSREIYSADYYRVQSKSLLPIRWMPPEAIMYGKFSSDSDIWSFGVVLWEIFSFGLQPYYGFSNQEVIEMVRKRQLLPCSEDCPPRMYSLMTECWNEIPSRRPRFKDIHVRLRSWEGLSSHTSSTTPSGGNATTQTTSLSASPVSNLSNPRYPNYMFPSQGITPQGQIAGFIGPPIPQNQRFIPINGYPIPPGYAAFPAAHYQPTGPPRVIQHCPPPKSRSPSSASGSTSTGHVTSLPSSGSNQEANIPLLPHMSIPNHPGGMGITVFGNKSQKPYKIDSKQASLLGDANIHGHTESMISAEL
Experiment: ROR1 high content cell-based binding assay
Settings: read-out: ROR1 Binding 293T Human HC Cell Based Assay IC50
Procedure, shortened: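 Doxycycline-induced 293T cells expressing human ROR1, seeded overnight, were treated with compound plus 5-FAM-labeled ROR1-binding probe peptide (30 nM final) for 1 h at 37 °C. After washing and formaldehyde/Hoechst fixation, cell-bound probe fluorescence was read by high-content imaging.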

Row | Structure (SMILES) | IC50 [nM]
1 | CC(C)C[C@@H]1NC(=O)[C@H](Cc2ccc(O)cc2)NC(=O)[C@H](Cc2ccccc2)NC(=O)CSC[C@@H](C(=O)NCC(N)=O)NC(=O)[C@H](CC(C)C)NC(=O)[C@H](Cc2ccccc2)N(C)C(=O)[C@H](Cc2ccc(O)cc2)NC(=O)[C@H](Cc2c[nH]c3ccccc23)NC(=O)CNC(=O)[C@H](CO)NC(=O)CNC(=O)[C@H](C(C)C)NC1=O [Example 1025] ({CH2CO}-FYLVGSGWY[NMeF]LCG-NH2; thioether N-12) | 365
2 | CC(C)C[C@@H]1NC(=O)[C@H](Cc2c[nH]c3ccccc23)NC(=O)[C@H](Cc2ccccc2)NC(=O)[C@H](Cc2c[nH]c3ccccc23)NC(=O)CNC(=O)[C@H](CO)NC(=O)[C@H](Cc2ccc(O)cc2)NC(=O)[C@H](C(C)C)NC(=O)[C@H](CCCNC(=N)N)NC(=O)[C@H](Cc2ccccc2)NC(=O)[C@H](Cc2ccccc2)NC(=O)CSC[C@@H](C(=O)NCC(N)=O)NC1=O [Example 1006] ({CH2CO}-FFRVYSGWFWLCG-NH2; thioether N-12) | 147
3 | CC(C)C[C@@H]1NC(=O)[C@H](Cc2c[nH]c3ccccc23)NC(=O)[C@H](Cc2ccccc2)NC(=O)[C@H](Cc2c[nH]c3ccccc23)NC(=O)CNC(=O)[C@H](CO)NC(=O)[C@H](Cc2ccc(O)cc2)NC(=O)[C@H](C(C)C)NC(=O)[C@H](CCCNC(=N)N)NC(=O)[C@H](Cc2ccccc2)NC(=O)[C@H](Cc2ccccc2)NC(=O)CSC[C@@H](C(N)=O)NC1=O [Example 1014] ({CH2CO}-FFRVYSGWFWLC-NH2; thioether N-12) | 707
4 | CC(C)C[C@@H]1NC(=O)[C@H](Cc2ccc(O)cc2)NC(=O)[C@H](Cc2ccccc2)NC(=O)CSC[C@@H](C(=O)NCC(=O)O)NC(=O)[C@H](CC(C)C)NC(=O)[C@H](Cc2ccccc2)N(C)C(=O)[C@H](Cc2ccc(O)cc2)NC(=O)[C@H](Cc2c[nH]c3ccccc23)NC(=O)CNC(=O)[C@H](CO)NC(=O)[C@H](Cc2ccc(O)cc2)NC(=O)[C@H](C(C)C)NC1=O [Example 1080] ({CH2CO}-FYLVYSGWY[NMeF]LCG-OH; thioether N-12) | 217
5 | CC(C)C[C@@H]1NC(=O)[C@H](Cc2ccc(O)cc2)NC(=O)[C@H](Cc2ccccc2)NC(=O)CSC[C@@H](C(=O)NCC(N)=O)NC(=O)[C@H](C)N(C)C(=O)[C@H](Cc2ccccc2)N(C)C(=O)[C@H](Cc2ccc(O)cc2)NC(=O)[C@H](Cc2c[nH]c3ccccc23)NC(=O)CNC(=O)[C@H](CO)NC(=O)[C@H](Cc2ccc(O)cc2)NC(=O)[C@H](C(C)C)NC1=O [Example 1064] ({CH2CO}-FYLVYSGWY[NMeF][NMeA]CG-NH2; thioether N-12) | 199
6 | CC(C)C[C@@H]1NC(=O)[C@H](Cc2ccccc2)NC(=O)CSC[C@@H](C(=O)NCC(N)=O)NC(=O)[C@H](CC(C)C)NC(=O)[C@H](Cc2ccccc2)N(C)C(=O)[C@H](Cc2ccc(O)cc2)NC(=O)[C@H](Cc2c[nH]c3ccccc23)NC(=O)CNC(=O)[C@H](CO)NC(=O)[C@H](Cc2ccc(O)cc2)NC(=O)[C@H](C(C)C)NC(=O)[C@H](Cc2c[nH]c3ccccc23)NC1=O [Example 1058] ({CH2CO}-FLWVYSGWY[NMeF]LCG-NH2; thioether N-12) | 755
7 | CC(C)C[C@@H]1NC(=O)[C@H](Cc2ccc(O)cc2)NC(=O)[C@H](Cc2ccccc2)NC(=O)CSC[C@@H](C(=O)NCC(N)=O)NC(=O)[C@@H](C)NC(=O)[C@H](Cc2ccccc2)N(C)C(=O)[C@H](Cc2ccc(O)cc2)NC(=O)[C@H](Cc2c[nH]c3ccccc23)NC(=O)CNC(=O)[C@H](CO)NC(=O)[C@H](Cc2ccc(O)cc2)NC(=O)[C@H](C(C)C)NC1=O [Example 1061] ({CH2CO}-FYLVYSGWY[NMeF][dA]CG-NH2; thioether N-12) | 645
8 | CC(C)C[C@@H]1NC(=O)[C@H](Cc2ccc(O)cc2)NC(=O)[C@H](Cc2ccccc2)NC(=O)CSC[C@@H](C(=O)NCC(N)=O)NC(=O)[C@H](CC(C)C)NC(=O)[C@H](Cc2ccccc2)N(C)C(=O)[C@H](Cc2ccc(O)cc2)NC(=O)[C@H](Cc2c[nH]c3ccccc23)NC(=O)CNC(=O)[C@H](CO)NC(=O)[C@H](Cc2cnc[nH]2)NC(=O)[C@H](C(C)C)NC1=O [Example 1030] ({CH2CO}-FYLVHSGWY[NMeF]LCG-NH2; thioether N-12) | 275
9 | CC(C)C[C@@H]1NC(=O)[C@H](Cc2ccc(O)cc2)NC(=O)[C@H](Cc2ccccc2)NC(=O)CSC[C@@H](C(=O)NCC(N)=O)NC(=O)[C@H](CC(C)C)NC(=O)[C@H](Cc2ccccc2)N(C)C(=O)[C@H](Cc2ccc(O)cc2)NC(=O)[C@H](Cc2c[nH]c3ccccc23)NC(=O)CNC(=O)[C@H](CO)NC(=O)[C@H](Cc2ccc(O)cc2)NC(=O)[C@H](CO)NC1=O [Example 1069] ({CH2CO}-FYLSYSGWY[NMeF]LCG-NH2; thioether N-12) | 82
10 | CC(C)C[C@@H]1NC(=O)[C@H](CC(N)=O)NC(=O)[C@H](Cc2ccccc2)N(C)C(=O)CNC(=O)[C@H](Cc2ccccc2)NC(=O)[C@H](Cc2ccccc2)NC(=O)CSC[C@@H](C(N)=O)NC(=O)[C@H](Cc2c[nH]c3ccccc23)NC(=O)[C@H](Cc2ccc(O)cc2)NC1=O [Example 1108] ({CH2CO}-FFG[NMeF]NLYWC-NH2; thioether N-9) | 404
11 | CN1C(=O)CNC(=O)[C@H](Cc2ccc(O)cc2)NC(=O)[C@H](Cc2ccccc2)NC(=O)CSC[C@@H](C(N)=O)NC(=O)[C@H](Cc2c[nH]c3ccccc23)NC(=O)[C@H](Cc2ccc(O)cc2)NC(=O)[C@H](Cc2ccccc2)NC(=O)[C@H](CC(N)=O)NC(=O)[C@@H]1Cc1ccccc1 [Example 1103] ({CH2CO}-FYG[NMeF]NFYWC-NH2; thioether N-9) | 923
12 | CC(C)C[C@@H]1NC(=O)[C@H](CC(N)=O)NC(=O)[C@H](Cc2ccc(O)cc2)N(C)C(=O)CNC(=O)[C@H](Cc2ccc(O)cc2)NC(=O)[C@H](Cc2ccccc2)NC(=O)CSC[C@@H](C(N)=O)NC(=O)[C@H](Cc2c[nH]c3ccccc23)NC(=O)[C@H](Cc2ccc(O)cc2)NC1=O [Example 1123] ({CH2CO}-FYG[NMeY]NLYWC-NH2; thioether N-9) | 126

Compounds with a lower IC50, results first:

Row | IC50 [nM] | Structure (SMILES)
13 | 72 | CC(C)C[C@@H]1NC(=O)[C@H](Cc2ccc(O)cc2)NC(=O)[C@H](Cc2ccccc2)NC(=O)CSC[C@@H](C(=O)NCC(N)=O)NC(=O)[C@H](CC(C)C)NC(=O)[C@H](Cc2ccccc2)N(C)C(=O)[C@H](Cc2ccc(O)cc2)NC(=O)[C@H](Cc2c[nH]c3ccccc23)NC(=O)[C@H](C)NC(=O)[C@H](CO)NC(=O)[C@H](Cc2ccc(O)cc2)NC(=O)[C@H](C(C)C)NC1=O [Example 1071] ({CH2CO}-FYLVYSAWY[NMeF]LCG-NH2; thioether N-12)
14 | 67 | CC(C)C[C@@H]1NC(=O)[C@H](Cc2ccc(O)cc2)NC(=O)[C@H](Cc2ccccc2)NC(=O)CSC[C@@H](C(=O)NCCOCCOCC(=O)O)NC(=O)[C@H](CC(C)C)NC(=O)[C@H](Cc2ccccc2)N(C)C(=O)[C@H](Cc2ccc(O)cc2)NC(=O)[C@H](Cc2c[nH]c3ccccc23)NC(=O)CNC(=O)[C@H](CO)NC(=O)[C@H](Cc2ccc(O)cc2)NC(=O)[C@H](C(C)C)NC1=O [Example 1090] ({CH2CO}-FYLVYSGWY[NMeF]LC[AEEA]-OH; thioether N-12)
15 | 54 | CC(C)C[C@@H]1NC(=O)[C@H](Cc2c[nH]c3ccccc23)NC(=O)[C@H](Cc2ccc(O)cc2)NC(=O)[C@H](Cc2c[nH]c3ccccc23)NC(=O)CNC(=O)C(CC(=O)O)NC(=O)[C@H](Cc2ccc(O)cc2)NC(=O)[C@H](C(C)C)NC(=O)[C@@H]2CCCN2C(=O)[C@H](Cc2ccc(O)cc2)NC(=O)[C@H](Cc2ccccc2)NC(=O)CSC[C@@H](C(=O)NCC(N)=O)NC1=O (some centres unmarked) [Example 1009] ({CH2CO}-FYPVY[ξD]GWYWLCG-NH2; thioether N-12)
16 | 34 | CC(C)C[C@@H]1NC(=O)[C@H](Cc2ccc(O)cc2)NC(=O)[C@H](Cc2ccccc2)NC(=O)CSC[C@@H](C(=O)NCC(N)=O)NC(=O)[C@H](CC(C)C)NC(=O)[C@H](Cc2ccccc2)N(C)C(=O)[C@H](Cc2ccc(O)cc2)NC(=O)[C@H](Cc2c[nH]c3ccccc23)NC(=O)CNC(=O)CNC(=O)[C@H](Cc2ccc(O)cc2)NC(=O)[C@H](C(C)C)NC1=O [Example 1022] ({CH2CO}-FYLVYGGWY[NMeF]LCG-NH2; thioether N-12)
17 | 29 | CC(C)C[C@@H]1NC(=O)[C@H](Cc2ccc(O)cc2)NC(=O)[C@H](Cc2ccccc2)NC(=O)CSC[C@@H](C(=O)NCC(N)=O)NC(=O)[C@H](CC(C)C)NC(=O)[C@H](Cc2ccccc2)N(C)C(=O)[C@H](Cc2ccc(O)cc2)NC(=O)[C@H](Cc2c[nH]c3ccccc23)NC(=O)CNC(=O)[C@H](Cc2ccc(O)cc2)NC(=O)[C@H](CCCNC(=N)N)NC(=O)[C@H](C(C)C)NC1=O [Example 1055] ({CH2CO}-FYLVRYGWY[NMeF]LCG-NH2; thioether N-12)
18 | 20 | CC(C)C[C@@H]1NC(=O)[C@H](Cc2ccccc2)N(C)C(=O)[C@H](Cc2ccc(O)cc2)NC(=O)[C@H](Cc2c[nH]c3ccccc23)NC(=O)CNC(=O)[C@H](CO)NC(=O)[C@H](Cc2ccc(O)cc2)NC(=O)[C@H](C(C)C)NC(=O)[C@H](C)N(C)C(=O)[C@H](Cc2ccc(O)cc2)NC(=O)[C@H](Cc2ccccc2)NC(=O)CSC[C@@H](C(=O)NCC(N)=O)NC1=O [Example 1062] ({CH2CO}-FY[NMeA]VYSGWY[NMeF]LCG-NH2; thioether N-12)
19 | 14 | CC(C)C[C@@H]1NC(=O)[C@H](Cc2ccc(O)cc2)NC(=O)[C@H](Cc2ccccc2)NC(=O)CSC[C@@H](C(=O)NCC(N)=O)NC(=O)[C@H](CC(C)C)NC(=O)[C@H](Cc2ccccc2)N(C)C(=O)[C@H](Cc2ccc(O)cc2)NC(=O)[C@H](Cc2c[nH]c3ccccc23)NC(=O)CNC(=O)[C@H](CC(=O)O)NC(=O)[C@H](Cc2ccc(O)cc2)NC(=O)[C@H](C(C)C)NC1=O [Example 1017] ({CH2CO}-FYLVYDGWY[NMeF]LCG-NH2; thioether N-12)
20 | 11 | CC(C)C[C@@H]1NC(=O)[C@H](Cc2c[nH]c3ccccc23)NC(=O)[C@H](C(C)C)NC(=O)CNC(=O)[C@H](CO)NC(=O)[C@H](Cc2ccccc2)N(C)C(=O)[C@H](Cc2ccc(O)cc2)NC(=O)[C@H](Cc2ccc(O)cc2)NC(=O)[C@@H](Cc2ccccc2)NC(=O)CSC[C@@H](C(=O)NCC(N)=O)NC(=O)[C@H](C(C)C)NC(=O)[C@H](Cc2ccc(O)cc2)NC1=O [Example 1000] ({CH2CO}-[dF]YY[NMeF]SGVWLYVCG-NH2; thioether N-12)
